The results in this text go back to US8937077B2, “Bicyclic diamines as janus kinase inhibitors” (Merck Sharp & Dohme Corp., priority 2010, dated 2015).

T1 sequence (P23458 875-1153 limits assumed): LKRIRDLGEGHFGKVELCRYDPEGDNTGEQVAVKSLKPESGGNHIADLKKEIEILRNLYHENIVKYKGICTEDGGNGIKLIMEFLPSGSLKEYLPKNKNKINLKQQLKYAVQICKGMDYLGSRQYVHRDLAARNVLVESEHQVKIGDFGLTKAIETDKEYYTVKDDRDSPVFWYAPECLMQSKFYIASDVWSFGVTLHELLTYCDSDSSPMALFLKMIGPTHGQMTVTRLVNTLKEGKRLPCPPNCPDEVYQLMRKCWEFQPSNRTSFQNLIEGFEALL

One experiment concerns the target T1, Jak1 (Homo sapiens, UniProt P23458).
T1 construct: using a recombinant purified GST-tagged catalytic domain for each enzyme; GST; purchased Invitrogen M4290
The experiment can be described thus: Jak Biochemical HTRF Assay (Jak1). The following applies: IC50 class, recombinant GST-tagged catalytic domain, read-out: Jak1 activity. The text has this: Compounds of formula I can be prepared according to the general procedures described in the Schemes and Examples herein, using appropriate materials. Representative compounds of the present invention are exemplified herein below. The compounds exemplified are not, however, to be construed as limiting the scope of the invention in any manner. The examples further illustrate details for the preparation of the compounds of the present invention. Those skilled in the art will readily understand that known variations of protecting groups, of reagents, as well as of the conditions and processes of the following preparative procedures, can be used to prepare these compounds. It is also understood that whenever a chemical reagent is not commercially available, such a chemical reagent can be readily prepared by those skilled in the art by either following or adapting known methods described in the literature or described herein. Chiral analogs were prepared via incorporation of chiral reagents or obtained after chiral chromatography separation of a racemically generated analog. All temperatures are degrees Celsius unless otherwise noted. Mass spectra (MS) were measured either by electrospray ion-mass spectroscopy (ESMS) or by atmospheric pressure chemical ionization mass spectroscopy (APCI). Jak1 data were obtained using the in vitro assay described below.
Jak Biochemical HTRF Assay Protocol
The ability of compounds to inhibit the activity of Jak1, Jak2, Jak3, and Tyk2 was measured using a recombinant purified GST-tagged catalytic domain for each enzyme (Invitrogen Jak1 #M4290, […]) in an HTRF format biochemical assay. The reactions employed a common peptide substrate, LCB-EQEDEPEGDYFEWLW-NH2 (in-house). The basic assay protocol is as follows: First, […] of diluted compounds in DMSO were dispensed into the wells of a dry 384-well Black plate (Greiner #781076) using a Labcyte Echo 555 acoustic dispenser. Subsequent reagent additions employed an Agilent Bravo. Next, 18 μL, of 1.11X enzyme and 1.11X substrate in 1X assay buffer (Invitrogen kinase buffer #PV3189, 2 mM DTT, 0.05% BSA) were added to the wells and shaken and then preincubated for 30 minutes at room temperature to allow compound binding to equilibrate. After equilibration, 2 μL of 10X ATP in 1X assay buffer was added to initiate the kinase reaction and the plates were shaken and then incubated at room temperature for 120 minutes. At the end of the incubation, 20 μL of 2X stop buffer (streptavidin-Dylight (Thermo #21845), Eu-tagged pY20 antibody (Perkin Elmer #AD0067), EDTA, HEPES, and Triton) was added to quench the reaction. Plates were shaken and centrifuged and then incubated 60 minutes at room temperature and then read on a Perkin Elmer Envision (λex=337 nm, λem=665 and 615 nm, TRF delay time=20 μs). HTRF signal=10,000*665 nm reading/615 nm reading. After normalization to untreated controls, the percent inhibition of the HTRF signal at each compound concentration was calculated. The plot of percent inhibition versus the log of compound concentration was fit with a 4-parameter dose response equation to calculate IC50 values.
Consider `Cc1cccc(COC(=O)N2CCCC3C2CCN3c2ncnc3[nH]ccc23)c1` (stereo not drawn) [Example 3-16, 3-methylbenzyl 1-(7H-pyrrolo[2,3-d]pyrimidin-4-yl)octahydro-4H-pyrrolo[3,2-b]-pyridine-4-carboxylate], for which the IC50 was 10 to 100 nM.
Take `Cc1ccc(COC(=O)N2CCCC3C2CCN3c2ncnc3[nH]ccc23)cc1` (stereo not drawn) [Example 3-17, 4-methylbenzyl 1-(7H-pyrrolo[2,3-d]pyrimidin-4-yl)octahydro-4H-pyrrolo[3,2-b]-pyridine-4-carboxylate]: the IC50 was 10 to 100 nM.
Same read-out and setting: under `O=C(OCc1cnccn1)N1CCCC2C1CCN2c1ncnc2[nH]ccc12` (stereo not drawn) [Example 3-18, pyrazin-2-ylmethyl 1-(7H-pyrrolo[2,3-d]pyrimidin-4-yl)octahydro-4H-pyrrolo[3,2-b]-pyridine-4-carboxylate] stands 10 to 100 nM.
On the same count and under the same terms, as for `O=C(OCc1cccnc1)N1CCC[C@@H]2[C@H]1CCN2c1ncnc2[nH]ccc12` [Example 3-19, pyridin-3-ylmethyl (3aR,7aR)-1-(7H-pyrrolo[2,3-d]pyrimidin-4-yl)octahydro-4H-pyrrolo[3,2-b]pyridine-4-carboxylate], the figure is 100 to 1000 nM; as for `COC(=O)c1cccc(COC(=O)N2CCC[C@@H]3[C@H]2CCN3c2ncnc3[nH]ccc23)c1` [Example 3-20, 3-(methoxycarbonyl)benzyl (3aR,7aR)-1-(7H-pyrrolo[2,3-d]pyrimidin-4-yl)octahydro-4H-pyrrolo[3,2-b]pyridine-4-carboxylate], 100 to 1000 nM; as for `COC(=O)c1ccc(CCOC(=O)N2CCC[C@@H]3[C@H]2CCN3c2ncnc3[nH]ccc23)cc1` [Example 3-21, 2-[4-(methoxycarbonyl)phenyl]ethyl (3aR,7aR)-1-(7H-pyrrolo[2,3-d]pyrimidin-4-yl)octahydro-4H-pyrrolo[3,2-b]pyridine-4-carboxylate], 10 to 100 nM.
Still for that read-out and setting: under `COC(=O)c1ccc(CCCOC(=O)N2CCC[C@@H]3[C@H]2CCN3c2ncnc3[nH]ccc23)cc1` [Example 3-22, 3-[4-(methoxycarbonyl)phenyl]propyl (3aR,7aR)-1-(7H-pyrrolo[2,3-d]pyrimidin-4-yl)octahydro-4H-pyrrolo[3,2-b]pyridine-4-carboxylate] stands 10 to 100 nM; under `C[C@@H](OC(=O)N1CCCC2C1CCN2c1ncnc2[nH]ccc12)c1ccccc1` (stereo partly drawn) [Example 3-23, (1R)-1-phenylethyl 1-(7H-pyrrolo[2,3-d]pyrimidin-4-yl)octahydro-4H-pyrrolo[3,2-b]-pyridine-4-carboxylate], 10 to 100 nM; under `C[C@H](OC(=O)N1CCCC2C1CCN2c1ncnc2[nH]ccc12)c1ccccc1` (stereo partly drawn) [Example 3-24, (1S)-1-phenylethyl 1-(7H-pyrrolo[2,3-d]pyrimidin-4-yl)octahydro-4H-pyrrolo[3,2-b]-pyridine-4-carboxylate], 10 to 100 nM.
`COC(=O)c1ccc(COC(=O)N2CCCC3C2CCN3c2ncnc3[nH]ccc23)cc1` (stereo not drawn) [Example 3-25, 4-(methoxycarbonyl)benzyl 1-(7H-pyrrolo[2,3-d]pyrimidin-4-yl)octahydro-4H-pyrrolo[3,2-b]pyridine-4-carboxylate]: the IC50 is 1 to 10 nM.
On the same count and under the same terms, under `COC(=O)c1cccc(OC(=O)N2CCCC3C2CCN3c2ncnc3[nH]ccc23)c1` (stereo not drawn) [Example 3-26, 3-(methoxyeaxbonyl)phenyl 1-(7H-pyrrolo[2,3-d]pyrimidin-4-yl)octahydro-4H-pyrrolo[3,2-b]pyridine-4-carboxylate] stands 10 to 100 nM; under `O=C(OCCN1CCS(=O)(=O)CC1)N1CCC[C@@H]2[C@H]1CCN2c1ncnc2[nH]ccc12` [Example 3-27, 2-(1,1-dioxidothiomorpholin-4-yl)ethyl (3 aR,7 aR)-1-(7H-pyrrolo[2,3-d]pyrimidin-4-yl)octahydro-4H-pyrrolo[3,2-b]pyridine-4-carboxylate], 100 to 1000 nM; under `O=C(OCCc1ccc2c(c1)CCO2)N1CCC[C@@H]2[C@H]1CCN2c1ncnc2[nH]ccc12` [Example 3-28, 2-(2,3-dihydro-1-benzofuran-5-yl)ethyl (3aR,7aR)-1-(7H-pyrrolo[2,3-d]pyrimidin-4-yl)octahydro-4H-pyrrolo[3,2-b]pyridine-4-carboxylate], 10 to 100 nM.
On the same count and under the same terms, as for `COC(=O)C1CC1CCOC(=O)N1CCC[C@@H]2[C@H]1CCN2c1ncnc2[nH]ccc12` (stereo partly drawn) [Example 3-29, 2-[2-(methoxycarbonyl)cyclopropyl]ethyl (3aR,7aR)-1-(7H-pyrrolo[2,3-d]pyrimidin-4-yl)octahydro-4H-pyrrolo[3,2-b]pyridine-4-carboxylate], the figure is 10 to 100 nM.
On the same count and under the same terms, as for `O=C(OCC1CC1)N1CCC[C@@H]2[C@H]1CCN2c1ncnc2[nH]ccc12` [Example 3-31, cyclopropylmethyl (3aR,7aR)-1-(7H-pyrrolo[2,3-d]pyrimidin-4-yl)octahydro-4H-pyrrolo[3,2-b]pyridine-4-carboxylate], the figure is 10 to 100 nM; as for `O=C(OC1CCCCC1)N1CCC[C@@H]2[C@H]1CCN2c1ncnc2[nH]ccc12` [Example 3-32, cyclohexyl (3aR,7aR)-1-(7H-pyrrolo[2,3-d]pyrimidin-4-yl)octahydro-4H-pyrrolo[3,2-b]pyridine-4-carboxylate], 10 to 100 nM; as for `O=C(OCc1ccccc1F)N1CCC[C@@H]2[C@H]1CCN2c1ncnc2[nH]ccc12` [Example 3-33, 2-fluorobenzyl (3aR,7aR)-1-(7H-pyrrolo[2,3-d]pyrimidin-4-yl)octahydro-4H-pyrrolo[3,2-b]pyridine-4-carboxylate], 1 to 10 nM.
On to `O=C(OCCc1cccc2ccccc12)N1CCC[C@@H]2[C@H]1CCN2c1ncnc2[nH]ccc12` [Example 3-34, 2-naphthalen-1-ylethyl (3aR,7aR)-1-(7H-pyrrolo[2,3-d]pyrimidin-4-yl)octahydro-4H-pyrrolo[3,2-b]pyridine-4-carboxylate], for which the IC50 fell in the range of 100 to 1000 nM.
Still for that read-out and setting: as for `O=C1CCCN1CCOC(=O)N1CCC[C@@H]2[C@H]1CCN2c1ncnc2[nH]ccc12` [Example 3-36, 2-(2-oxopyrrolidin-1-yl)ethyl (3aR,7aR)-1-(7H-pyrrolo[2,3-d]pyrimidin-4-yl)octahydro-4H-pyrrolo[3,2-b]pyridine-4-carboxylate], the figure is 100 to 1000 nM; as for `O=C(OCCc1ccccn1)N1CCC[C@@H]2[C@H]1CCN2c1ncnc2[nH]ccc12` [Example 3-37, 2-pyridin-2-ylethyl (3aR,7 aR)-1-(7H-pyrrolo[2,3-d]pyrimidin-4-yl)octahydro-4H-pyrrolo[3,2-b]pyridine-4-carboxylate], 10 to 100 nM; as for `O=C(OCCN1CCOCC1)N1CCC[C@@H]2[C@H]1CCN2c1ncnc2[nH]ccc12` [Example 3-39, 2-morpholin-4-ylethyl (3aR,7aR)-1-(7H-pyrrolo[2,3-d]pyrimidin-4-yl)octahydro-4H-pyrrolo[3,2-b]pyridine-4-carboxylate], 10 to 100 nM.
On the same count and under the same terms, as for `O=C(OCCN1CCCC1)N1CCC[C@@H]2[C@H]1CCN2c1ncnc2[nH]ccc12` [Example 3-40, 2-pyrrolidin-1-ylethyl (3aR,7aR)-1-(7H-pyrrolo[2,3-d]pyrimidin-4-yl)octahydro-4H-pyrrolo[3,2-b]pyridine-4-carboxylate], the figure is 100 to 1000 nM.
On the same count and under the same terms, under `CN1CCN(CCOC(=O)N2CCC[C@@H]3[C@H]2CCN3c2ncnc3[nH]ccc23)CC1` [Example 3-41, 2-(4-methylpiperazin-1-yl)ethyl(3aR,7aR)-1-(7H-pyrrolo[2,3-d]pyrimidin-4-yl)octahydro-4H-pyrrolo[3,2-b]pyridine-4-carboxylate] stands 100 to 1000 nM; under `CN1CCC(COC(=O)N2CCC[C@@H]3[C@H]2CCN3c2ncnc3[nH]ccc23)CC1` [Example 3-42, (1-methylpiperidin-4-yl)methyl (3 aR,7 aR)-1-(7H-pyrrolo[2,3-d]pyrimidin-4-yl)octahydro-4H-pyrrolo[3,2-b]pyridine-4-carboxylate], 100 to 1000 nM.
Consider `O=C(OCCc1cc(F)cc(F)c1)N1CCC[C@@H]2[C@H]1CCN2c1ncnc2[nH]ccc12` [Example 3-44, 2-(3,5-difluorophenyl)ethyl (3aR,7aR)-1-(7H-pyrrolo[2,3-d]pyrimidin-4-yl)octahydro-4H-pyrrolo[3,2-b]pyridine-4-carboxylate], for which the IC50 fell in the range of 10 to 100 nM.

The experiment is the same for the next values; noted with them: recombinant GST-tagged catalytic domain, 31.8 μM ATP, read-out: Representative IC50 values.
`O=C(OC1CCCCC1)N1CCC[C@@H]2[C@H]1CCN2c1ncnc2[nH]ccc12` [Example 3-32, cyclohexyl (3aR,7aR)-1-(7H-pyrrolo[2,3-d]pyrimidin-4-yl)octahydro-4H-pyrrolo[3,2-b]pyridine-4-carboxylate]: the IC50 came out at 11 nM.
For the compound `CN1CCN(CCOC(=O)N2CCC[C@@H]3[C@H]2CCN3c2ncnc3[nH]ccc23)CC1` [Example 3-41, 2-(4-methylpiperazin-1-yl)ethyl(3aR,7aR)-1-(7H-pyrrolo[2,3-d]pyrimidin-4-yl)octahydro-4H-pyrrolo[3,2-b]pyridine-4-carboxylate], the IC50 is 131 nM.
